Calls of active or inactive are those of the source. The rule behind the calls is not given here.

The test system of assay [1] is Saccharomyces cerevisiae. The assay can be described thus: Potentiation of high temperature-induced cytotoxicity in yeast cells deficient in rad27 by dilution assay. The class given is functional, organism-based.
In assay [2] the test system is Saccharomyces cerevisiae. The assay can be described thus: Potentiation of DNA damaging agent methyl methane sulfonate-induced cytotoxicity in yeast cells by dilution assay. Type of assay: functional, organism-based.
The subject of assay [3] is Saccharomyces cerevisiae. Briefly: Potentiation of DNA damaging agent methyl methane sulfonate-induced cytotoxicity in yeast cells deficient in rad27 by dilution assay. Type of assay: functional, organism-based.
In assay [4] the test system is Saccharomyces cerevisiae. The assay can be described thus: Potentiation of high temperature-induced cytotoxicity in yeast cells by dilution assay. The class given is functional, organism-based.
The subject of assay [5] is U2OS. Briefly: Induction of single-stranded DNA accumulation in human U2OS cells assessed as reduction in P-RPA foci at 50 uM. The class given is functional, cell-based.
Assay [6] has as its system HCT-116. The assay can be described thus: Cell cycle arrest in human HCT116 cells assessed as accumulation at G1 phase at 10 uM incubated for 48 hrs by propidium iodide staining based flow cytometry (reference value: 76.2%). Type of assay: functional.
For a further assay, the system named is CWR22R. The assay can be described thus: Cytotoxicity against human 22Rv1 cells assessed as reduction in cell viability incubated for 7 days. The class given is functional, cell-based. The settings on record: 22Rv1, 168 h.
Assay [7] has as its system HCT-116. The assay can be described thus: Cell cycle arrest in human HCT116 cells assessed as accumulation at S phase at 50 uM incubated for 48 hrs by propidium iodide staining based flow cytometry (reference value: […]). Type of assay: functional.
Assay [8] has as its system HCT-116. The assay can be described thus: Cytotoxicity against human HCT116 cells assessed as reduction in cell viability incubated for 7 days. The class given is functional, cell-based. The settings on record: HCT-116, 168 h.
A further assay relates to HCT-8. The assay can be described thus: Cytotoxicity against human HCT8 cells assessed as reduction in cell viability incubated for 7 days. The class given is functional, cell-based. The settings on record: HCT-8, 168 h.
A further assay concerns DLD-1. The assay can be described thus: Cytotoxicity against human DLD1 cells assessed as reduction in cell viability incubated for 7 days. Type of assay: functional, cell-based. The conditions noted are these: DLD-1, 168 h.
Assay [9] deals with HCT-116. The assay can be described thus: Cytotoxicity against human HCT116 cells assessed as reduction in cell viability at 10 to 10000 nM in presence of siFEN1 by tryphan blue staining based assay. The class given is functional.
The test system of assay [10] is MCF7. The assay can be described thus: Cytotoxicity against human MCF7 cells assessed as reduction in cell viability incubated for 7 days. The settings on record: MCF7, 168 h. Type of assay: functional, cell-based.
Assay [11] deals with U2OS. Briefly: Induction of single-stranded DNA accumulation in human U2OS cells assessed as reduction in P-RPA foci at 20 uM. Type of assay: functional, cell-based.
The next assay has as its system IMR-90. Briefly: Cytotoxicity against human IMR90 cells assessed as reduction in cell viability incubated for 7 days. Type of assay: cell-based. The settings on record: IMR-90, 168 h.
The test system of assay [12] is HCT-116. The assay can be described thus: Cell cycle arrest in human HCT116 cells assessed as accumulation at G2/M phase at 50 uM incubated for 48 hrs by propidium iodide staining based flow cytometry (reference value: […]). Type of assay: functional.
Assay [13] has as its system MCF7. The assay can be described thus: Cytotoxicity against human MCF7 cells transfected with shDNA2 assessed as cell survival relative to control. The class given is functional, cell-based.
Another assay relates to WiDr. The assay can be described thus: Cytotoxicity against human WiDr cells assessed as reduction in cell viability incubated for 7 days. The class given is functional, cell-based. The settings on record: 168 h.
For a further assay, the species on record is Mus musculus. Briefly: Cytotoxicity against dna2 (-/-) mouse MES cells assessed as cell survival relative to control. Type of assay: functional, cell-based.
Another assay deals with MCF-10A. The assay can be described thus: Cytotoxicity against human MCF10A cells assessed as reduction in cell viability incubated for 7 days. The conditions noted are these: 168 h. Type of assay: cell-based.
The next assay relates to NCI-H2030. Briefly: Cytotoxicity against human NCI-H2030 cells assessed as reduction in cell viability incubated for 7 days. Type of assay: functional, cell-based. The conditions noted are these: NCI-H2030, 168 h.
Assay [14] addresses Flap endonuclease 1 (Homo sapiens) (UniProt P39748).
The subject of another assay is NCI-H460. The assay can be described thus: Cytotoxicity against human NCI-H460 cells assessed as reduction in cell viability incubated for 7 days. The conditions noted are these: NCI-H460, 168 h. The class given is functional, cell-based.
Assay [15] in a line: Cytotoxicity against human CWRR1 cells assessed as reduction in cell viability incubated for 7 days. The settings on record: 168 h. Type of assay: functional, cell-based.
Another assay is filed under the species Homo sapiens. Briefly: Suppression of 125 nM cisplatin-induced cytotoxicity in FANCD2 (-/-) human PD20 cells assessed as increase in cell survival at 10 uM. The class given is functional, cell-based.
The test system of the next assay is LNCaP C4-2. The assay can be described thus: Cytotoxicity against human C4-2 cells assessed as reduction in cell viability incubated for 7 days. Type of assay: functional, cell-based. The conditions noted are these: LNCaP C4-2, 168 h.
In assay [16] the test system is HCT-116. The assay can be described thus: Cell cycle arrest in human HCT116 cells assessed as accumulation at G1 phase at 50 uM incubated for 48 hrs by propidium iodide staining based flow cytometry (reference value: 76.2%). Type of assay: functional.
Assay [17] relates to HCT-116. The assay can be described thus: Cell cycle arrest in human HCT116 cells assessed as accumulation at S phase at 10 uM incubated for 48 hrs by propidium iodide staining based flow cytometry (reference value: […]). Type of assay: functional.
The next assay relates to RWPE-1. Briefly: Cytotoxicity against human RWPE1 cells assessed as reduction in cell viability incubated for 7 days. The settings on record: RWPE-1, 168 h. The class given is cell-based.
Assay [18] deals with HCT-116. Briefly: Cytotoxicity against human HCT116 cells assessed as reduction in cell viability at 10 to 10000 nM in presence of siMRE11 by tryphan blue staining based assay. The class given is functional.
In a further assay the test system is A549. The assay can be described thus: Cytotoxicity against human A549 cells assessed as reduction in cell viability incubated for 7 days. The class given is functional, cell-based. The settings on record: A549, 168 h.
A further assay concerns MDA-MB-231. The assay can be described thus: Cytotoxicity against human MDA-MB-231 cells assessed as reduction in cell viability incubated for 7 days. The class given is functional, cell-based. The settings on record: MDA-MB-231, 168 h.
For assay [19], the system named is HCT-116. Briefly: Cell cycle arrest in human HCT116 cells assessed as accumulation at G2/M phase at 10 uM incubated for 48 hrs by propidium iodide staining based flow cytometry (reference value: […]). The class given is functional.
The subject of the next assay is FHC. The assay can be described thus: Cytotoxicity against human FHC cells assessed as reduction in cell viability incubated for 7 days. The class given is cell-based. The conditions noted are these: 168 h.
For another assay, the system named is PC-3. The assay can be described thus: Cytotoxicity against human PC3 cells assessed as reduction in cell viability incubated for 7 days. The class given is functional, cell-based. The settings on record: PC-3, 168 h.
Assay [20] has as its system HCT-116. Briefly: Cytotoxicity against human HCT116 cells assessed as reduction in cell viability at 10 to 10000 nM in presence of siEXO1 by tryphan blue staining based assay. Type of assay: functional.
Assay [21] has as its target Exonuclease 1 (Homo sapiens) (UniProt Q9UQ84).
For the next assay, the system named is HT-29. The assay can be described thus: Cytotoxicity against human HT-29 cells assessed as reduction in cell viability incubated for 7 days. The class given is functional, cell-based. The settings on record: HT-29, 168 h.

Flap endonuclease 1 (Homo sapiens), sequence (P39748 whole entry): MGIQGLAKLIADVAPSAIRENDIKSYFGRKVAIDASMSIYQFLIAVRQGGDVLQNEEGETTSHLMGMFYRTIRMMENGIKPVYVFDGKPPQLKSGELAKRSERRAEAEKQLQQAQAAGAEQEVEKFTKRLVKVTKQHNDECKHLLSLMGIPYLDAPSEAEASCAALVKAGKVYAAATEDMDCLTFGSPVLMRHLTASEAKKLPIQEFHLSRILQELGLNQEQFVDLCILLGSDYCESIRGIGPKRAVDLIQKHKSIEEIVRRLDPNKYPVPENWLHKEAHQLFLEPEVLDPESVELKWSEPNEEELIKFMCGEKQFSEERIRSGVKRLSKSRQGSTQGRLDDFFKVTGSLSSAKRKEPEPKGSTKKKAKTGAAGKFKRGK
Exonuclease 1 (Homo sapiens), sequence (Q9UQ84 whole entry): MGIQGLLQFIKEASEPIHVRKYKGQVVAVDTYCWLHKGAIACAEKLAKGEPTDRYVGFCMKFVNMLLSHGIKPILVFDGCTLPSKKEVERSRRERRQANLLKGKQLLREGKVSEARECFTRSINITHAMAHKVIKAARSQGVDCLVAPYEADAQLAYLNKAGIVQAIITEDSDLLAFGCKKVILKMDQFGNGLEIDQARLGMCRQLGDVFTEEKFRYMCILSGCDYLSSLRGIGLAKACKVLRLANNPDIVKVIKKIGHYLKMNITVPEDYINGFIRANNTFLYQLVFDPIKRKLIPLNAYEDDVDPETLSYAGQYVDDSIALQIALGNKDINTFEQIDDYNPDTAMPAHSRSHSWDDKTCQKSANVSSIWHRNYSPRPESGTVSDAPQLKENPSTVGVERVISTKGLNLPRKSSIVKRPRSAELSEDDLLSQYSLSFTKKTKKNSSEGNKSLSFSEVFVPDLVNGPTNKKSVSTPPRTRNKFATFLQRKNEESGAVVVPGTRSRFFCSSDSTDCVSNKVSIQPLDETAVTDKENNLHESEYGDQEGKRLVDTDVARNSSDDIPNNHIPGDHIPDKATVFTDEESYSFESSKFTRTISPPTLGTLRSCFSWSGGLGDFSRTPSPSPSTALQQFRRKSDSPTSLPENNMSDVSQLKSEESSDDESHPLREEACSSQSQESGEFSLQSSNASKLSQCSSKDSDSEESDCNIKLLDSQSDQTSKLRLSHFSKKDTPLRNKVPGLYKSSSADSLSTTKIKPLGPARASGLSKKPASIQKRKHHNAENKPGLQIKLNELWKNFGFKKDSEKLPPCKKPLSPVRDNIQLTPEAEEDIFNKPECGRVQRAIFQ

With `CCCCNC(=O)c1c[nH]c2c([N+](=O)[O-])cccc2c1=O`, the result with Saccharomyces cerevisiae [1] and in the assay on Saccharomyces cerevisiae [3] was Active. The result in the assay with Saccharomyces cerevisiae [2] and in the assay on Saccharomyces cerevisiae [4] was inactive.

`N=C1NC(=O)/C(=C/c2ccc(O)cc2)S1`: in the assay on U2OS [5], the result was inactive.

For the molecule `O=C(O)c1cnc2c([N+](=O)[O-])cccc2c1O`, the outcome in the assay with Saccharomyces cerevisiae [1], in the assay with HCT-116 [9], in the assay on MCF7 [13], in the assay filed under Mus musculus, in the assay listed under Homo sapiens and with Saccharomyces cerevisiae [3] was Active. In addition, the outcome in the assay on HCT-116 [18] and in the assay on HCT-116 [20] was Active. Further, the Activity worked out at 66.9% in the assay with HCT-116 [6]; 17.2% in the assay on HCT-116 [7]; 28.1% in the assay on HCT-116 [12]; 54.1% in the assay with HCT-116 [16]; 13% with HCT-116 [17]; 12.6% in the assay with HCT-116 [19]. Moreover, the outcome in the assay on Saccharomyces cerevisiae [2], in the assay on U2OS [11] and in the assay with Saccharomyces cerevisiae [4] was inactive. The IC50 with CWR22R was 11.8 µM; in the assay on HCT-116 [8] it was 24.2 µM; in the assay on HCT-8, 27.5 µM; in the assay on DLD-1 it was 25.1 µM; in the assay with MCF7 [10] it was 7.2 µM; with IMR-90, 95.5 µM. The IC50 came to 52.6 µM with WiDr; 24.4 µM with MCF-10A; 17.7 µM with NCI-H2030; 43.7 µM in the assay on NCI-H460; 15.7 µM in [15]; 19.7 µM in the assay with LNCaP C4-2. For the same molecule, the 50% inhibitory concentration (IC50) amounted to 78.8 µM in the assay with RWPE-1; 23.6 µM in the assay with A549; 46.8 µM in the assay with MDA-MB-231; 75.2 µM in the assay on FHC; 20.9 µM in the assay on PC-3; 40.5 µM in the assay with HT-29. For the same molecule, the inhibition result in assay [14] and in [21] was “inactive” each time.

The values above are taken from ChEMBL document CHEMBL4417634, “DNA2 inhibitors for cancer treatment” (2018).
